The test system of this test is amphetamine-induced symptoms. Put plainly: antagonism of amphetamine-induced symptoms in rats (blocking of amphetamine behavior of cage movement). The following applies: Rattus norvegicus, ip. Type of test: in vivo. An excerpt:
The tranquilizing agents of the present invention are characterized by relief of such schizophrenic manifestations in humans as hallucinations, hostility, suspiciousness, emotional and social withdrawal, anxiety, agitation and tension. Standard procedures of detecting and comparing tranquilizing activity of compounds in this series and for which there is an excellent correlation with human efficacy is the antagonism of amphetamine-induced symptoms in rats test as taught by A. Weissman, et al., J. Pharmacol. Exp. Ther., 151, 339 (1966) and by Quinton, et al., Nature, 200, 178 (1963).
The effects of the compounds of the present invention on prominent amphetamine-induced symptoms were studied in rats by a rating scale modeled after the one reported by Quinton and Halliwell; and Weissman. Groups of five rats were placed in a covered plastic cage measuring approximately 26 cm. × 42 cm. × 16 cm. After a brief period of acclimation in the cage, the rats in each group were treated intraperitoneally (i.p.) with the test compound. […] On the basis of dose-response data after amphetamine it was possible to determine the effective dose of the compound necessary to antagonize or block the characteristic amphetamine behavior of cage movement for fifty percent of the rats tested (ED50). The time of rating chosen coincides with the peak action of amphetamine which is 60-80 min. after treatment with this agent.
Employing the above-described procedure, the following compounds were tested for their ability to block the behavior effects to amphetamine, the results being reported as the ED50 in mg./kg. at the indicated times: […]

Where [1] appears, read: test compound i.p., d-amphetamine sulfate 5 mg./kg. i.p. 1 hr. later, rated one hour after amphetamine, read-out: ED50, 1 hr.
[2] abbreviates: test compound i.p., d-amphetamine sulfate 5 mg./kg. i.p. 5 hrs. later, rated one hour after amphetamine, read-out: ED50, 5 hrs.

SMILES strings stand for the structures. Where two headings read alike, the source gives them in different places.

The source of these data is patent US4006164A, “4-Aryl-1,2,3,4-tetrahydropyrrolo[3,4-b]indoles” (Pfizer Inc., priority 1975, dated 1977).

As usually defined, the ED50 is the midpoint of the dose-response relation. On to `CN(C)CCCN1c2ccccc2Sc2ccc(Cl)cc21` [chlorpromazine, reference compound], for which the ED50 (1 h, read-out: ED50, 1 hr.) is more than 10 mg/kg. Turning to `OC(CCCN1Cc2c(n(-c3ccc(F)cc3)c3ccc(F)cc23)C1)c1ccc(F)cc1` (centres unmarked), the median effective dose (ED50) fell in the range of 1 to 3.2 mg/kg under setting [1] and 1 to 3.2 mg/kg under setting [2].

In the case of `CN1Cc2c(n(-c3ccc(F)cc3)c3ccc(F)cc23)C1` [X = F, Z = F, R = CH3, 7-Fluoro-4-(p-fluorophenyl)-2-methyl-1,2,3,4-tetrahydropyrrolo[3,4-b]indole], the median effective dose (ED50) is, setting by setting: under setting [1], 3.2 to 5.6 mg/kg; under setting [2], more than 10 mg/kg.
